Source: ChEMBL document CHEMBL1128960, “Phosphonic acid and phosphinic acid tripeptides as inhibitors of glutathionylspermidine synthetase” (Bioorg Med Chem Lett, 1996)

Key:
[1] = target: T1, Glutathionylspermidine synthase (Crithidia fasciculata) (UniProt P90518); assay: Compound was tested for inhibitory activity against glutathionylspermidine synthetase in the presence of 5 mM glutathione and spermidine.
T1 sequence (whole entry): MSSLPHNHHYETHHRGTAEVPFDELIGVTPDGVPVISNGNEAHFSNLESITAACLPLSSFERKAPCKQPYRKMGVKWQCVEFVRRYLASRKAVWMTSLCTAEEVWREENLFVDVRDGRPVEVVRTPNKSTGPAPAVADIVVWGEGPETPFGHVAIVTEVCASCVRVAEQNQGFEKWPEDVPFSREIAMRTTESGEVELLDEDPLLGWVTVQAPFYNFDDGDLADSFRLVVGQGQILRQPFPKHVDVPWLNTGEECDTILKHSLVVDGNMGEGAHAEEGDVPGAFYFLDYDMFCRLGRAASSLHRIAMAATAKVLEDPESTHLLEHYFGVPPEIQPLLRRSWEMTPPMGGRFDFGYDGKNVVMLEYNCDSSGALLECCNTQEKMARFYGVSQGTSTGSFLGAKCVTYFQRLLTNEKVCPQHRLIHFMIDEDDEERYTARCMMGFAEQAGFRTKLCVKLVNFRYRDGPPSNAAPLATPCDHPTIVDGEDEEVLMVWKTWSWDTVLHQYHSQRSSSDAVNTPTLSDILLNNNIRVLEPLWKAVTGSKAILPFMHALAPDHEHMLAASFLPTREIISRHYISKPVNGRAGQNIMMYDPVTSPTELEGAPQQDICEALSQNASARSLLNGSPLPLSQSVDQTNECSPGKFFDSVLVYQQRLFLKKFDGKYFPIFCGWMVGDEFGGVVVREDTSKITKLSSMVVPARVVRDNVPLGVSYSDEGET

[2] = target: T2, Glutathionylspermidine synthase (Crithidia fasciculata, UniProt P90518); assay: Compound was tested for linear non-competitive inhibitory activity against glutathionylspermidine synthetase.
T2 sequence (P90518 whole entry): T1 sequence (whole entry)

[3] = target: T1, Glutathionylspermidine synthase (Crithidia fasciculata); assay: Compound was tested for inhibitory activity against glutathionylspermidine synthetase in the presence of 5 mM glutathione and spermidine; Not inhibition
[4] = target: T1, Glutathionylspermidine synthase (Crithidia fasciculata); assay: Compound was tested for inhibitory activity against glutathionyl spermidine synthetase in the presence of 5 mM glutathione and spermidine.

Row | inhibition [1] | Compound | also measured
1 | 78% | CC(C)[C@H](NC(=O)[C@@H](N)CCC(=O)O)C(=O)NCP(=O)(O)O | Ki [2]: 290 µM
2 | 86% | CC(C)C[C@H](NC(=O)[C@@H](N)CCC(=O)O)C(=O)NCP(=O)(O)O | Ki [2]: 60 µM
3 | 62% | CC(C)C[C@H](NC(=O)[C@@H](N)CCC(=O)O)C(=O)NCC(=O)CP(=O)(O)O | 
4 | 24% | CC(C)C[C@H](NC(=O)[C@@H](N)CCC(=O)O)C(=O)NCCCP(=O)(O)O | 
5 | 26% | CC(C)[C@H](NC(=O)[C@@H](N)CCC(=O)O)C(=O)NCP(C)(=O)O | 

The next lines start with the molecule.

Row | Compound | inhibition [1] | also measured
6 | CC(C)[C@H](NC(=O)[C@@H](N)CCC(=O)O)C(=O)NCC(N)CP(=O)(O)O (some centres undefined) | 10% | 
7 | CC(C)[C@H](NC(=O)[C@@H](N)CCC(=O)O)C(=O)NC[PH](=O)O | 50% | 
8 | COC(=O)CCP(=O)(O)CNC(=O)[C@@H](NC(=O)[C@@H](N)CCC(=O)O)C(C)C | 71% | 
9 | CC(C)[C@H](NC(=O)[C@@H](N)CCC(=O)O)C(=O)NCC(=O)CP(=O)(O)O |  | inhibition [3]: No inhibition
10 | CC(C)[C@H](NC(=O)[C@@H](N)CCC(=O)O)C(=O)NCP(=O)(O)CCC(N)=O | 11% | 
11 | CC(C)[C@H](NC(=O)[C@@H](N)CCC(=O)O)C(=O)NC(C)P(C)(=O)O (some centres undefined) | 14% | 
12 | CC(C)[C@H](NC(=O)[C@@H](N)CCC(=O)O)C(=O)NCCCP(=O)(O)O |  | inhibition [3]: No inhibition
13 | CC(C)C[C@H](NC(=O)[C@@H](N)CCC(=O)O)C(=O)Nc1ccc(CP(=O)(O)O)cc1 |  | inhibition [3]: No inhibition
14 | CC(C)C[C@H](NC(=O)[C@@H](N)CCC(=O)O)C(=O)NCP(=O)(Oc1ccccc1)Oc1ccccc1 | 76% | 
15 | CC(C)[C@H](NC(=O)[C@@H](N)CCC(=O)O)C(=O)NCC(O)CP(=O)(O)O (some centres undefined) |  | inhibition [3]: No inhibition
16 | CC(C)[C@H](NC(=O)[C@@H](N)CCC(=O)O)C(=O)NCCP(=O)(O)O |  | inhibition [3]: No inhibition
17 | COC(=O)CCP(=O)(O)C(C)NC(=O)[C@@H](NC(=O)[C@@H](N)CCC(=O)O)C(C)C (some centres undefined) |  | inhibition [4]: 15%
